# In patent publication US20230416329A1, “A PEPTIDE WITH DISULFIDE BONDS AND INHIBITORY ACTIVITY AGAINST SERINE PROTEASES, DERIVED HYBRID PEPTIDES THEREOF, AND USES THEREOF” (INSTITUTE OF MATERIA MEDICA , CHINESE ACADEMY OF MEDICAL …, priority 2020, published 2023):
# Bridge positions count the residues as written; N and C are the ends. Ends that are not written are not given here.
# Columns and labels:
# elastase = elastase (Sus scrofa, UniProt P00772); assay: in vitro; conditions: isolated enzyme elastase
# elastase, sequence (P00772 27-266): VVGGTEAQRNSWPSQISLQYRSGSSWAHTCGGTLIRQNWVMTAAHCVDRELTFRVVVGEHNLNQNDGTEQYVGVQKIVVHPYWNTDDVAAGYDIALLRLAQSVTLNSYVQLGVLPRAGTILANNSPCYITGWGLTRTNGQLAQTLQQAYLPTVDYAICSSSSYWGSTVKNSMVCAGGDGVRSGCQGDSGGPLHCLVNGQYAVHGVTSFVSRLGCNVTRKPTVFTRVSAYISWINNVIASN
# How it was run: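 Peptides and elastase (0.5 μg/μL solution) each pre-warmed 5 min at 37° C, then mixed; aliquots taken at 1.5 to 60.0 min and quenched with 10% TFA. Remaining intact peptide quantified as RP-HPLC peak area.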
# [1] = Stability of GLP-1 and its analogues in human serum; conditions: 25% (v/v) human serum
# normal ICR mice [2] = assay: In vivo hypoglycemic activity of GLP-1 analogues, subcutaneous administration, oral glucose loading; parameters: species or system mouse; conditions: subcutaneous 1 μmol/kg, mean
# Experimental: FIG. 21. In vivo hypoglycemic activities of GLP-1 analogues by subcutaneous administration. Normal ICR mice were subcutaneously injected with GLP-1 and its analogues or corresponding volumes of saline (1.0 μmol/kg, n=10). After 30 min, glucose solution (2 g/kg) was administered by gavage, and blood was collected from the tail tip at 30, 60, and 120 min after glucose administration. Blood glucose was measured using glucose oxidase method, and blood glucose values and area under the blood glucose curve (AUC) were calculated at each timepoint.
# The day before the experiment, all of the animals were fasted for 15-16 hours with water ad libitum. On the day of the experiment, the animals were randomly divided according to body weight (n=10). Firstly, the blood was collected from the tail tip at 0 hour, and then the animals were administered subcutaneously with GLP-1 analog (SEQ ID NOs: 194-201, 1 μmol/kg) or saline. After 30 minutes, the animals were administered by gavage with glucose solution (2 g/kg), and the blood was collected from the tail tip at 30, 60, and 120 minutes later. Blood glucose was measured using glucose oxidase method. The blood glucose and area under the blood glucose-time curve (AUC) were calculated.
# normal ICR mice [3] = assay: In vivo hypoglycemic activity of GLP-1 analogues, duodenal administration, oral glucose loading; parameters: species or system mouse
# Experimental: FIG. 22. In vivo hypoglycemic activities of GLP-1 analogues by duodenal administration. Normal ICR mice were anesthetized with inhalation of ether, and the duodenum was surgically removed and injected with GLP-1 and its analogues or a corresponding volume of saline ([…], n=9-11), and finally the incision was sewed. After 15 min, glucose solution (2 g/kg) was administered by gavage, and blood was collected from the tail tips at 15, 30, and 60 min after glucose administration. Blood glucose was measured using glucose oxidase method, and blood glucose values and area under the blood glucose curve (AUC) were calculated at each timepoint.
# Drug delivery technology can use enteric coating technology to achieve oral administration targeting the small intestine. In order to test the feasibility of direct small intestinal administration of GLP-1, the present invention designs duodenal administration. The experimental process is as follows: The day before the experiment, all of the animals were fasted for 15-16 hours with water ad libitum. On the day of the experiment, the animals were randomly divided according to body weight (n=9-11 or 14-15 for combined administration). Firstly, the blood was collected from the tail tip at 0 hours, and then the animals were anesthetized by inhaling ether. A small incision was made near the underside of the stomach using surgical scissors, and the duodenum was carefully removed and administered with GLP-1 analogs (SEQ ID NOs: 194-209, 10 μmol/kg) or saline. Finally, the wound was sutured. After 15 minutes, the glucose solution (2 g/kg) was administered by gavage, and the blood were collected from the tail tips at 15, 30, and 60 minutes after glucose administration. Blood glucose was measured using the glucose oxidase method. The blood glucose at each moment and area under the blood glucose-time curve (AUC) were calculated.
# AUC mg×h/dL)=(BG0+BG15)×15/60+(BG15+BG30)×15/60+(BG30+BG60)×30/60. BG0, BG15, BG30, and BG60 represent blood glucose levels at 0, 15, 30, and 60 minutes after glucose loading, respectively.
# DPP-IV = DPP-IV (Homo sapiens, UniProt P27487); assay: Tolerance of GLP-1 and its analogues to DPP-IV (RP-HPLC remaining peak area); assay type: in vitro ADME; conditions: peptide 25 μM, DPP-IV 0.5 ng/μL, 37° C.
# DPP-IV, sequence (P27487 whole entry, species assumed): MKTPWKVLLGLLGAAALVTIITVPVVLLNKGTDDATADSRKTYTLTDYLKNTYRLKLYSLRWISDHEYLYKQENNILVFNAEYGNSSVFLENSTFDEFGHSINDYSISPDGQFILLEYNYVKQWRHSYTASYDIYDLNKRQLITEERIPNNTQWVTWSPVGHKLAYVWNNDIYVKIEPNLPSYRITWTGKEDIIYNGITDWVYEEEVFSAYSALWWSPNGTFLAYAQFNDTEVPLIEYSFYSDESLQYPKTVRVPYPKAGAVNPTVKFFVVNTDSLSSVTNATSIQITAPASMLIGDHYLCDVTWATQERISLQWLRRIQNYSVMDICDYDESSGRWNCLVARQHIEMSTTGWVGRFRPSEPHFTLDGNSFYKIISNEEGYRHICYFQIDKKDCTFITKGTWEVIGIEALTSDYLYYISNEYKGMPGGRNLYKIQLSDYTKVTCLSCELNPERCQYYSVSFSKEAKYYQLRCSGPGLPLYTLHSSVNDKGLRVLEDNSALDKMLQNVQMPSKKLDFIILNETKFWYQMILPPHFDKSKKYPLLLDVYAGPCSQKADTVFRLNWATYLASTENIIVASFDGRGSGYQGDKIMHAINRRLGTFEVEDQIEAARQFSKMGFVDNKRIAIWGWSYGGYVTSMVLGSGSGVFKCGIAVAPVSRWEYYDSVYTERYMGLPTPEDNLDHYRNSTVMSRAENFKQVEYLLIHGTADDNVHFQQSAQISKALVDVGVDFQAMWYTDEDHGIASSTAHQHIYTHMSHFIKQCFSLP
# Experimental: Mix by centrifugation at 8000 rpm for 30 seconds.
# (2) Arrange a certain volume of 0.005 μg/μL DPP-IV solution in another sterile EP.
# [4] = system: P407-induced hyperlipidemia mice; assay: Subcutaneous injection of PCSK9 inhibitory peptide, serum total cholesterol in P407-induced hyperlipidemia mice; assay type: in vivo, mouse; conditions: for serum total cholesterol (TC) level after subcutaneous injection (in words): 2 μmol/kg single s.c., P407-induced hyperlipidemia mice
# How it was run: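 ICR mice, fasted overnight, received intraperitoneal P407 at 500 mg/kg. After 24 h they received subcutaneous peptide at 2 μmol/kg in 20% PEG400; vehicle-treated and normal groups served as controls. Serum total cholesterol was measured at various times after dosing.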
# [5] = system: P407 induced hyperlipidemia mice; assay: Duodenal injection of PCSK9 inhibitory peptide, serum total cholesterol in P407 induced hyperlipidemia mice; assay type: in vivo, mouse
# Experimental: The experimental polypeptide sample was prepared using PEG400 with a final concentration of 20 μmol/kg and the final concentration of PEG400 is 50% (w/v). The control group was saline containing PEG400 (50%).
# Normal ICR mice were fasted overnight with water ad libitum. The next day, all of the mice were intraperitoneally injected with poloxamer 407 (P407, 500 mg/kg) to establish a model of lipid metabolism disorder. Six mice were intraperitoneally injected with saline as a normal control (Nor). Normal feeding resumed after 2 hours. The model animals were randomly divided into model group (Con) and polypeptide groups according to body weight, and the blood was collected from tail tip (0 min). Then, the animals were anesthetized with ether for duodenal exposure surgery. At the same time, a sample or saline containing PEG400 was injected through the duodenum. Finally, the wound was sutured. The blood was collected from tail tip at 15, 30, 60, and 90 minutes after administration to determine the serum total cholesterol level.
# [6] = biological target: T1, interaction of PCSK9-LDLR (Homo sapiens, UniProt Q8NBP7); assay: PCSK9-LDLR in vitro binding assay (inhibitory rate); conditions: in vitro
# T1 construct: purchased MBL Company, Beijing, China CY-8150
# How it was run: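 Polypeptide (final 50 μM) pre-incubated 20 min at room temperature with PCSK9 (final 75 ng/mL), then run in a PCSK9-LDLR binding kit read at OD450/540 nm. Inhibition rate calculated relative to a solvent control (water or DMSO) lacking polypeptide.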
# [7] = pH 8, Remaining peak area (%)/elastase
# [8] = duodenal 10 μmol/kg, normal ICR mice, after oral glucose loading
compound,measurement,setting,value
CC[C@H](C)[C@H](NC(=O)[C@H](Cc1ccccc1)NC(=O)[C@H](CCC(=O)O)NC(=O)[C@H](CCCCN)NC(=O)[C@H](C)NC(=O)[C@H](C)NC(=O)[C@H](CCC(N)=O)NC(=O)CNC(=O)[C@H](CCC(=O)O)NC(=O)[C@H](CC(C)C)NC(=O)[C@H](Cc1ccc(O)cc1)NC(=O)[C@H](CO)NC(=O)[C@H](CO)NC(=O)[C@@H](NC(=O)[C@H](CC(=O)O)NC(=O)[C@H](CO)NC(=O)[C@@H](NC(=O)[C@H](Cc1ccccc1)NC(=O)[C@@H](NC(=O)CNC(=O)[C@H](CCC(=O)O)NC(=O)[C@H](C)NC(=O)[C@H](Cc1c[nH]cn1)NC(=O)CNC(=O)CNC(=O)[C@@H](NC(=O)[C@@H]1CCCN1C(=O)[C@@H](NC(=O)CNC(=O)CNC(=O)[C@H](CCC(N)=O)NC(=O)[C@@H]1CSSC[C@H](NC(=O)[C@@H](N)CC(C)C)C(=O)N[C@@H]([C@@H](C)O)C(=O)N[C@@H](C)C(=O)N[C@@H](CO)C(=O)N[C@@H]([C@@H](C)CC)C(=O)N2CCC[C@H]2C(=O)N2CCC[C@H]2C(=O)N[C@@H]([C@@H](C)CC)C(=O)N1)[C@@H](C)CC)[C@@H](C)CC)[C@@H](C)O)[C@@H](C)O)C(C)C)C(=O)N[C@@H](C)C(=O)N[C@@H](Cc1c[nH]c2ccccc12)C(=O)N[C@@H](CC(C)C)C(=O)N[C@H](C(=O)N[C@@H](CCCCN)C(=O)NCC(=O)N[C@@H](CCCNC(=N)N)C(=O)NCC(=O)NCC(=O)N[C@@H](CCCCN)C(=O)O)C(C)C [EC12-D-GLP-1],Remaining peak area (%)/elastase,"elastase; 1 h, 60 μM, pH 8",17.8 ± 2.0%
same,"remaining at 0.025 h, 60 μM",elastase; [7],90.2 ± 3%
same,"remaining at 0.05 h, 60 μM",elastase; [7],86 ± 1.7%
same,"remaining at 0.075 h, 60 μM",elastase; [7],79.7 ± 3.5%
same,"remaining at 0.1 h, 60 μM",elastase; [7],79.1 ± 2.2%
same,"remaining at 0.15 h, 60 μM",elastase; [7],74.5 ± 2.2%
same,"remaining at 0.25 h, 60 μM",elastase; [7],63.3 ± 0.7%
same,"remaining at 0.5 h, 60 μM",elastase; [7],49.4 ± 0.9%
same,"remaining at 1 h, 60 μM",elastase; [7],~20%
same,Remaining peak area (%)/human serum,"[1]; 0.0 h, peptide 0.03 mM, 37° C.",100.0 ± 0.0%
same,"remaining at 0.5 h, 0.03 mM","[1]; human, pH 7",94.6 ± 5.3%
same,"remaining at 2 h, 0.03 mM","[1]; human, pH 7",69.3 ± 4%
same,"remaining at 4 h, 0.03 mM","[1]; human, pH 7",43.4 ± 1.7%
same,"remaining at 8 h, 0.03 mM","[1]; human, pH 7",5.7 ± 0.1%
same,"remaining at 12 h, 0.03 mM","[1]; human, pH 7",2.2 ± 0.1%
same,AUC (blood glucose-time curve),normal ICR mice [2]; 0-120 min,159.1 mg·h/dL
same,Blood glucose 0 min,"normal ICR mice [2]; 0 min, oral glucose loading 2 g/kg",63.3 mg/dL
same,Blood glucose 30 min,normal ICR mice [2]; 30 min after oral glucose loading,103.3 mg/dL
same,Blood glucose 60 min,normal ICR mice [2]; 60 min after oral glucose loading,77.2 mg/dL
same,Blood glucose 120 min,normal ICR mice [2]; 120 min after oral glucose loading,67.6 mg/dL
same,reduction of blood glucose at 15 minutes compared with Nor,normal ICR mice [3]; [8],11.9%
same,reduction of blood glucose at 30 minutes compared with Nor,normal ICR mice [3]; [8],19.9%
same,reduction of blood glucose at 60 minutes compared with Nor,normal ICR mice [3]; [8],17.4%
same,AUC (blood glucose-time curve),"normal ICR mice [3]; duodenal injection 10 μmol/kg, 0-60 min, mean",123.6 mg·h/dL
same,Blood glucose 0 min,"normal ICR mice [3]; duodenal injection 10 μmol/kg, 0 min, mean",75.6 mg/dL
same,Blood glucose 15 min,"normal ICR mice [3]; duodenal injection 10 μmol/kg, 15 min after oral glucose loading, mean",120.8 mg/dL
same,Blood glucose 30 min,"normal ICR mice [3]; duodenal injection 10 μmol/kg, 30 min, mean",129.8 mg/dL
same,Blood glucose 60 min,"normal ICR mice [3]; duodenal injection 10 μmol/kg, 60 min, mean",141.1 mg/dL
same,Remaining peak area (%)/DPP-IV,DPP-IV; 0.0 h,100.0 ± 0.0%
same,"remaining at 0.5 h, 25 μM","DPP-IV; isolated DPP-IV enzyme in buffer, pH 8, 0.5 h",79.1 ± 2.6%
same,"remaining at 2 h, 25 μM","DPP-IV; isolated DPP-IV enzyme in buffer, pH 8, 2.0 h",78.5 ± 1.1%
same,"remaining at 4 h, 25 μM","DPP-IV; isolated DPP-IV enzyme in buffer, pH 8, 4.0 h",81.7 ± 0.8%
same,"remaining at 8 h, 25 μM","DPP-IV; isolated DPP-IV enzyme in buffer, pH 8, 8.0 h",79.2 ± 2.6%
same,"remaining at 12 h, 25 μM","DPP-IV; isolated DPP-IV enzyme in buffer, pH 8, 12.0 h",80.7 ± 0.3%
Trp-Glu-Glu-Tyr-Leu-Asp-Tyr-Val-Gly-Ile-Cys-Thr-Ala-Ser-Ile-Pro-Pro-Ile-Cys-Gln-Gly-Thr-Val-Phe-Thr-Ser (WEEYLDYVGICTASIPPICQGTVFTS; disulfide 11-19 (inferred)) [PCSK9_6EC],serum total cholesterol (TC) level after subcutaneous injection (in words),[4],reduced serum TC level
same,serum total cholesterol (TC) level after subcutaneous injection (in words),[4]; listed as SEQ ID NO: 231,excellent lowering lipid (total cholesterol) activities in vivo
same,TC 15 min,"[4]; serum, subcutaneous 2 μmol/kg, 15 min after administration, mean ± sd",243.8 ± 61.0 mg/dL
same,TC 30 min,"[4]; serum, subcutaneous 2 μmol/kg, 30 min after administration, mean ± sd",236.9 ± 57.4 mg/dL
same,TC 60 min,"[4]; serum, subcutaneous 2 μmol/kg, 60 min after administration, mean ± sd",234.5 ± 63.8 mg/dL
same,TC 90 min,"[4]; serum, subcutaneous 2 μmol/kg, 90 min after administration, mean ± sd",227.4 ± 58.6 mg/dL
same,hypolipidemic activity after duodenal administration (in words),"[5]; 20 μmol/kg, P407 induced hyperlipidemia mice",did not show hypolipidemic activity
same,TC 15 min,"[5]; serum, duodenal injection 20 μmol/kg, 15 min, mean ± sd",316.6 ± 34.3 mg/dL
same,TC 30 min,"[5]; serum, duodenal injection 20 μmol/kg, 30 min, mean ± sd",293.1 ± 67.3 mg/dL
same,TC 60 min,"[5]; serum, duodenal injection 20 μmol/kg, 60 min, mean ± sd",323.9 ± 51.5 mg/dL
same,TC 90 min,"[5]; serum, duodenal injection 20 μmol/kg, 90 min, mean ± sd",317.7 ± 44.3 mg/dL
same,inhibitory activity on the interaction between PCSK9 and LDLR (in words),[6],good inhibitory activity on the interaction between PCSK9 and LDLR
same,inhibitory activity on the interaction between PCSK9 and LDLR (in words),[6]; listed as SEQ ID NO: 231,good inhibitory effects in vitro
